Experimental data: PubChem BioAssay (NCI)
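Growth conditions: 96-well plates. Treatment: test compound, 48 hours, 5 concentrations. Analysis: linear interpolation between bracketing concentrations; unreached endpoints set to highest concentration. GI50 is the concentration that inhibits growth by half. TGI is the concentration that stops growth completely.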

Columns and labels:
Assay in all cases: NCI anticancer screen, dose series, 48 h
RXF 393 renal = tested on: RXF 393 renal
NCI-H460 lung = tested on: NCI-H460 lung
SF-268 CNS = tested on: SF-268 CNS
SNB-75 CNS = tested on: SNB-75 CNS
COLO 205 colon = tested on: COLO 205 colon
IGROV1 ovarian = tested on: IGROV1 ovarian
HOP-92 NSCLC = tested on: HOP-92 NSCLC
MDA-MB-435 = tested on: MDA-MB-435
NCI-H226 lung = tested on: NCI-H226 lung
SF-295 CNS = tested on: SF-295 CNS

| Compound | TGI (RXF 393 renal) [µM] | TGI (NCI-H460 lung) [µM] | TGI (SF-268 CNS) [µM] | TGI (SNB-75 CNS) [µM] | TGI (COLO 205 colon) [µM] | TGI (IGROV1 ovarian) [µM] | TGI (HOP-92 NSCLC) [µM] | TGI (MDA-MB-435) [µM] | TGI (NCI-H226 lung) [µM] | TGI (SF-295 CNS) [µM] | GI50 (MDA-MB-435) [µM] | GI50 (NCI-H226 lung) [µM] | GI50 (RXF 393 renal) [µM] | GI50 (NCI-H460 lung) [µM] | GI50 (SF-268 CNS) [µM] | GI50 (SNB-75 CNS) [µM] | GI50 (COLO 205 colon) [µM] | GI50 (IGROV1 ovarian) [µM] | GI50 (HOP-92 NSCLC) [µM] | GI50 (SF-295 CNS) [µM] |
| --- | --- | --- | --- | --- | --- | --- | --- | --- | --- | --- | --- | --- | --- | --- | --- | --- | --- | --- | --- | --- |
| O=C(O)CC/C(=N\Nc1nsc2ccccc12)c1ccccc1 | > 100 | > 100 | > 100 | 61.3 | > 100 | > 100 | > 100 | – | – | – | – | – | – | – | – | – | – | – | – | – |
| C[C@]12CC[C@@H]3c4ccc(O)cc4CC[C@H]3[C@@H]1C/C(=C\c1ccncc1)C2=O | > 100 | > 100 | > 100 | > 100 | > 100 | 68.3 | > 100 | 74.9 | 68.6 | > 100 | – | – | – | – | – | – | – | – | – | – |
| COCCOCOc1ccc(OCc2ccccc2)cc1 | > 100 | > 100 | > 100 | > 41.1 | > 100 | > 100 | > 100 | – | > 100 | > 100 | – | – | – | – | – | – | – | – | – | – |
| COC(=O)C1C(C(=O)OC)N(Cc2ccccc2)C(=O)N1Cc1ccccc1 (stereo not drawn) | > 100 | > 100 | > 100 | > 100 | > 100 | > 100 | > 100 | > 100 | > 100 | > 100 | – | – | – | – | – | – | – | – | – | – |
| C=CCN1C(=O)/C(=C/c2ccccc2)N=C1SC1OC(COC(=O)c2ccccc2)C(OC(=O)c2ccccc2)C1OC(=O)c1ccccc1 (stereo not drawn) | > 100 | > 100 | – | > 100 | > 100 | > 100 | > 100 | > 100 | > 100 | > 100 | – | – | – | – | – | – | – | – | – | – |
| C/C(CCOC1CCCCO1)=C(\C)[Si](C)(C)C (stereo not drawn) | – | > 100 | > 100 | > 100 | > 100 | > 100 | > 100 | – | – | > 100 | – | – | – | – | – | – | – | – | – | – |
| COc1ccc2[nH]c(O)c(/C=c3/cc4c(c(-c5cc(OC)c(OC)c(OC)c5)n3)=Nc3ccccc3-4)c2c1 | 41.9 | > 100 | > 100 | > 100 | 21.5 | > 100 | 99.2 | > 100 | > 100 | > 100 | 3.48 | > 100 | 2.41 | 4.07 | 46.4 | 26.7 | 3.67 | > 100 | 3.43 | 8.97 |
| C=C(C(=O)C(=O)Oc1ccc(Cl)cc1)C(=O)c1ccc(C)cc1 | 79.3 | > 100 | > 100 | > 100 | > 100 | > 100 | > 100 | – | > 100 | > 100 | – | – | – | – | – | – | – | – | – | – |
| CC(C)OP(=O)(OC(C)C)c1c(Nc2ccccc2)n[nH]c1N | > 100 | > 100 | > 100 | > 100 | > 100 | > 100 | > 100 | > 100 | > 100 | > 100 | – | – | – | – | – | – | – | – | – | – |
| C#CCCCCC#Cc1ccccc1C(=O)OC | 95.1 | > 100 | > 100 | 86.5 | > 100 | > 100 | 86 | – | > 100 | > 100 | – | – | – | – | – | – | – | – | – | – |
| CCOC(=O)c1csc(NC(=O)CCN(CC)CC)n1 | > 100 | > 100 | – | 73.5 | 84.8 | > 100 | 69.3 | > 100 | 89 | > 100 | – | – | – | – | – | – | – | – | – | – |
| CC1=C(O)C(=O)[C@@H]2O[C@@H]2C1=O | 7.88 | 47.4 | 30.5 | 31.9 | 16 | 48.4 | 17.1 | – | 37 | 72.1 | – | – | – | – | – | – | – | – | – | – |
